The record followed here is US20250170141A1, “MRGPRX2 MODULATORS AND RELATED METHODS OF TREATMENT” (Escient Pharmaceuticals, Inc., priority 2023, published 2025).

Data set [1] can be described thus: Mouse Pharmacokinetic Studies (50 mg/kg oral gavage, plasma LC-MS/MS). To be noted: male C57BL/6 mice, non-fasted. Format: in vivo. On the procedure:
Compounds were formulated in 5% DMSO, 5% Solutol, and 90% PBS without Ca and Mg (pH 7.4) at a concentration of […]. Male C57BL/6 mice (n=6/compound) were administered a 50 mg/kg dose of each compound by oral gavage under a non-fasted condition. Blood samples were collected via the Submandibular vein onto K2-EDTA at 0.5, 1, 2, 4, 8 and 24 hours after dosing, and plasma was prepared and stored at −80° C. until analysis. Plasma sample preparation for analysis was done by protein precipitation using acetonitrile (including Verapamil as an internal standard) followed by centrifugation. Compound concentrations were determined in extracted plasma using LC-MS/MS relative to a 12-point standard curve covering the 1 to 4000 nM range. Non-compartmental analysis using Phoenix WinNonlin was used to estimate pharmacokinetic parameters including area under the curve, clearance, and half-life. The administered dose was confirmed by analysis of residual dosing material by UPLC-UV relative to a single point calibration sample.

Another data set concerns the target T1, human MRGPRX2 (Homo sapiens, UniProt Q96LB1).
T1 construct: expressed in transfected cells; host or cells: CHO cells, stably transfected (G418 and Hygromycin B selection)
T1 sequence (Q96LB1 1-330): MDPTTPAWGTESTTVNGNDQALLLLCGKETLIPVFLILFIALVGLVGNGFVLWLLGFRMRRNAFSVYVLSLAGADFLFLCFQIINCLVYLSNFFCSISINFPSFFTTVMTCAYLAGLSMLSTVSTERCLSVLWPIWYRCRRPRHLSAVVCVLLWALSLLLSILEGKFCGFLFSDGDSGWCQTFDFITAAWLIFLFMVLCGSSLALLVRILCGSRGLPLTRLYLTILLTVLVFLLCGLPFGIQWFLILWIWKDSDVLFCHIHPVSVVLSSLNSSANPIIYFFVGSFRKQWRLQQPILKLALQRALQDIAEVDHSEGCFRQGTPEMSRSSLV
Description: MRGPRX2 activity: IP-One Gq HTRF assay in CHO cells, antagonism versus 0.3 uM Cortistatin-14. Format: cell-based. To be noted: versus 0.3 uM Cortistatin-14 agonist, CHO cells expressing human MRGPRX2, read-out: MRGPRX2 Antagonist Activity. In short, it runs like this:
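Antagonist IC50 was derived from the HTRF IP-1 signal after co-addition of compounds (10 points, top 30 uM, 3-fold steps) and 0.3 μM Cortistatin-14 agonist to human MRGPRX2-expressing CHO cells. Assay buffer contained 50 mM LiCl, pH 8; plates sat 1 h at 37 °C, then 1 h at room temperature.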
For orientation: Time-resolved FRET reads energy transfer from a long-lived donor to a nearby acceptor.

In the next data set the test system is Human LAD2 cells. Briefly: Mast Cell Beta-Hexosaminidase Release Assay (LAD2 cells, 500 nM Cortistatin-14). Format: cell-based. To be noted: read-out: MRGPRX2 Antagonist Activity. The method, then: Human LAD2 cells (NIH) were maintained in an incubator at 37° C. with 5% CO2 and cultured in StemPro-34 serum-free media (Gibco 10639011) supplemented with 2 mM L-glutamine, 100 U/ml penicillin, […] streptomycin and 100 ng/ml SCF (Invitrogen PEP0860), at a concentration of 2-5×10^5 cells/mL, with hemidepletion every 1-2 weeks.
Cells were transferred to SCF-Free medium at 2.5×10^5 cells/mL and kept in an incubator overnight. On the day of the assay, cells were washed twice in Assay Buffer (final concentrations 10 mM HEPES, 137 mM NaCl, 5.6 mM D-glucose, 2.7 mM KCl, 1 mM MgCl, 1.8 mM CalCl2, 0.4 mM Na2HPO4·7H2O, 0.04% BSA, pH=7.4) and plated in a 96-well v-bottom plate at 20,000 cells per well in 80 μL Assay Buffer. Antagonist compounds solubilized at 10 mM in DMSO were diluted in Assay Buffer to 10× final desired concentrations as a 10-point curve (10 μM final top concentration with 1:3 serial dilutions) and 10 μL added per well. Plates were then incubated for 1 hour at 37° C. Agonists were diluted in Assay Buffer to 10× desired concentrations and 10 μL of the appropriate agonist added to each well. The final concentration of Cortistatin-14 (Tocris 3374) used in antagonist assays was 500 nM. Final concentrations of DMSO were kept consistent across the plate. Plates were then incubated in a warm air oven for 30 minutes at 37° C., followed by centrifugation at 4° C. for 5 minutes at 450×g. 50 μL supernatant from each well was then transferred to a 96-well flat bottom plate containing 100 μL substrate solution per well (3.5 mg/mL p-Nitrophenyl-N-acetyl-o-D-glucosaminide (Sigma 487052) in Citrate Buffer containing a final concentration of 40 mM Citric Acid, 20 mM Na2HPO4·7H2O, pH=4.5). To the cell pellets left in the remaining assay buffer, 150 μL 0.1% Triton-X-100 was then added to each well, resuspended by pipetting up and down, and 50 μL cell lysates transferred to a second 96-well flat bottom plate containing 100 μL substrate solution per well. Plates containing transferred supernatant and cell lysates were then incubated in a warm air oven for 90 minutes at 37° C. After incubation, 50 μL of 400 mM Glycine buffer (pH 10.7) was added into each well and the plate was read on a Molecular Devices SpectraMax iD5 plate reader (absorbance at 405 nm with reference filter at 620 nm). After background subtraction, the percentage degranulation (percent beta-hexosaminidase release) was calculated as 100×(supernatant values)/(supernatant+lysate values), followed by analysis using GraphPad Prism software to calculate an IC50 value for each compound.
The activity ranges are denoted as follows: “+++++” denotes antagonist activity <100 nM; “++++” denotes antagonist activity between 100 and 500 nM; “+++” denotes activity between 501 and 1000 nM; “++” denotes activity between 1001 and 2500 nM; and “+” denotes activity >2500 nM.

[2] abbreviates: male, C57BL/6, mouse, po, 50 mg/kg.
The mark [3] stands for this setting: Homo sapiens, LAD2, Mast Cell Beta-Hexosaminidase Release Assay.
Where [4] appears, read: Mast Cell Beta-Hexosaminidase Release Assay.

As a reminder, the Cmax is the peak of the concentration-time curve. By half-life is commonly meant the time needed for the level to fall by half in the phase considered. Low values mean fast loss, high ones slow loss.

Where two headings read alike, the source gives them in different places. A value given as a limit tells only on which side of the number the result lay.

`C[C@H](c1ccccc1F)c1c(F)c(F)cc2c1NC(NCc1ncccc1F)=NS2(=O)=O` [Compound 10-6B, (R)-6,7-difluoro-5-(1-(2-fluorophenyl)ethyl)-3-(((3-fluoropyridin-2-yl)methyl)amino)-4H-benzo[e][1,2,4]thiadiazine 1,1-dioxide]: the TBC in data set [1] is given as 33 mL/min/kg. For the same compound, the Cmax in data set [1] (setting [2]) turned out to be 2700 nM. Also, the IC50 at human MRGPRX2 and in the data set on Human LAD2 cells (setting [3]) was 100 to 500 nM in each case.

In turn, `CC(c1ccccc1F)c1c(F)ccc2c1NC(NCc1ncccc1F)=NS2(=O)=O` (single isomer, unassigned) [Compound 10-1A] gave a Cmax in data set [1] (50 mg/kg) of 4600 nM. Besides, the TBC in data set [1] (50 mg/kg) worked out at 26 mL/min/kg. Besides, in data set [1] (setting [2]), the half-life was 2.6 h. The IC50 at human MRGPRX2 was under 100 nM; with Human LAD2 cells (setting [3]) it was 100 to 500 nM.

Turning to `CC(c1ccc(F)cc1)c1c(F)ccc2c1NC(NCc1ncccc1F)=NS2(=O)=O` (single isomer, unassigned) [Compound 10-4A], the TBC in data set [1] (50 mg/kg) is 11 mL/min/kg. Also, in data set [1] (setting [2]), the peak level (Cmax) was 9600 nM and the half-life is 4.4 h. Besides, the IC50 on human MRGPRX2 is under 100 nM. Moreover, the IC50 with Human LAD2 cells (setting [3]) was in the range of 100 to 500 nM.

Regarding `Cc1c(F)cccc1CNC1=NS(=O)(=O)c2ccc(F)c(C(C)c3ccccc3F)c2N1` (single isomer, unassigned) [Compound 10-3B], in data set [1] (50 mg/kg), the Cmax was found to be 4200 nM, the T1/2 was found to be 2 h and the TBC was determined as 41 mL/min/kg. Also, the IC50 at human MRGPRX2 is under 100 nM. Moreover, the IC50 in the data set with Human LAD2 cells (setting [4]) is under 100 nM.

In data set [1] (50 mg/kg), `Cc1c(F)cccc1CNC1=NS(=O)(=O)c2ccc(F)c(C(C)c3ccccc3F)c2N1` (single isomer, unassigned) [Compound 10-3A] yielded a Cmax of 370 nM and a TBC of 4.3 mL/min/kg. Also, in data set [1] (setting [2]), the half-life is 2.5 h. Also, the IC50 on human MRGPRX2 is under 100 nM. Further, the IC50 in the data set with Human LAD2 cells (setting [3]) lay within 100 to 500 nM.

Turning to `CC(c1ccccc1F)c1c(F)ccc2c1NC(NCc1cccc(F)n1)=NS2(=O)=O` (single isomer, unassigned) [Compound 10-2A], in data set [1] (50 mg/kg), the peak level (Cmax) was 2700 nM, the T1/2 is on record as 3.0 h and the TBC amounted to 30 mL/min/kg. The IC50 on human MRGPRX2 was under 100 nM. Besides, in the data set on Human LAD2 cells (setting [4]), the IC50 lay within 501 to 1000 nM.

Take `CC(c1ccccc1F)c1c(F)ccc2c1NC(NCc1cccc(F)c1)=NS2(=O)=O` (single isomer, unassigned) [Compound 10-5A]: in data set [1] (50 mg/kg), the peak level (Cmax) was 2800 nM and the TBC worked out at 50 mL/min/kg. Also, the half-life in data set [1] (setting [2]) is 2.2 h. Besides, at human MRGPRX2, the IC50 was under 100 nM. The IC50 with Human LAD2 cells (setting [4]) lay in the range of 1000 to 2500 nM.

In the case of `O=S1(=O)N=C(NCc2ccccc2C(F)(F)F)Nc2c(Cc3ccccc3Cl)cccc21` [Compound 12-27, 5-(2-chlorobenzyl)-3-((2-(trifluoromethyl)benzyl)amino)-4H-benzo[e][1,2,4]thiadiazine 1,1-dioxide], the IC50 on human MRGPRX2 is under 100 nM.

`COc1cccnc1CNC1=NS(=O)(=O)c2ccc(F)c(Oc3ccccc3Cl)c2N1` [Compound 1-30, 5-(2-chlorophenoxy)-6-fluoro-3-(((3-methoxypyridin-2-yl)methyl)amino)-4H-benzo[e][1,2,4]thiadiazine 1,1-dioxide]: the IC50 at human MRGPRX2 was in the range of 100 to 500 nM.

On to `CC(c1ccc(F)cc1F)c1c(F)ccc2c1NC(NCc1cccc(F)c1)=NS2(=O)=O` (stereo not shown) [Compound 22-25, 5-(1-(2,4-difluorophenyl)ethyl)-6-fluoro-3-((3-fluorobenzyl)amino)-4H-benzo[e][1,2,4]thiadiazine 1,1-dioxide], for which the IC50 on human MRGPRX2 was under 100 nM.

Regarding `O=S1(=O)N=C(NCc2ncccc2O)Nc2c1ccc(F)c2Oc1ccccc1Cl` [Compound 1-37, 5-(2-chlorophenoxy)-6-fluoro-3-(((3-hydroxypyridin-2-yl)methyl)amino)-4H-benzo[e][1,2,4]thiadiazine 1,1-dioxide], the IC50 at human MRGPRX2 is over 2500 nM.

As for `COc1cccnc1CNC1=NS(=O)(=O)c2cc(F)c(F)c(Oc3ccccc3Cl)c2N1` [Compound 1-7, 5-(2-chlorophenoxy)-6,7-difluoro-3-(((3-methoxypyridin-2-yl)methyl)amino)-4H-benzo[e][1,2,4]thiadiazine 1,1-dioxide], on human MRGPRX2, the IC50 is 100 to 500 nM.

As to `COc1ccccc1CNC1=NS(=O)(=O)c2ccc(F)c(C(C)c3ccccc3F)c2N1` (stereo not shown) [Compound 7-9, 6-fluoro-5-(1-(2-fluorophenyl)ethyl)-3-((2-methoxybenzyl)amino)-4H-benzo[e][1,2,4]thiadiazine 1,1-dioxide], the IC50 on human MRGPRX2 was under 100 nM.

On to `O=S1(=O)N=C(NCc2cccnc2F)Nc2c1cc(F)c(F)c2Cc1ccccc1Cl` [Compound 4-7, 5-(2-chlorobenzyl)-6,7-difluoro-3-(((2-fluoropyridin-3-yl)methyl)amino)-4H-benzo[e][1,2,4]thiadiazine 1,1-dioxide], for which, on human MRGPRX2, the IC50 lay within 1000 to 2500 nM.

`O=S1(=O)N=C(NCc2ccccc2F)Nc2c(Cc3ccccc3Cl)cccc21` [Compound 6-2, 5-(2-chlorobenzyl)-3-((2-fluorobenzyl)amino)-4H-benzo[e][1,2,4]thiadiazine 1,1-dioxide]: at human MRGPRX2, the IC50 was under 100 nM.

On to `O=S1(=O)N=C(NCc2cnccc2C(F)(F)F)Nc2c(Cc3ccccc3Cl)cccc21` [Compound 12-30, 5-(2-chlorobenzyl)-3-(((4-(trifluoromethyl)pyridin-3-yl)methyl)amino)-4H-benzo[e][1,2,4]thiadiazine 1,1-dioxide], for which the IC50 on human MRGPRX2 was under 100 nM.
